{"source": "patent US20080268041A1", "about": "“COMBINATION OF PROGESTERONE-RECEPTOR ANTAGONIST TOGETHER WITH NONE-STEROIDAL ANTIESTROGEN FOR USE IN BRCA MEDIATED DISEASES” (priority 2007, published 2008)", "key": {"progesterone receptor [1]": {"biological_target": "T1, progesterone receptor (Homo sapiens, UniProt P06401)", "T1 sequence (P06401 1-933)": "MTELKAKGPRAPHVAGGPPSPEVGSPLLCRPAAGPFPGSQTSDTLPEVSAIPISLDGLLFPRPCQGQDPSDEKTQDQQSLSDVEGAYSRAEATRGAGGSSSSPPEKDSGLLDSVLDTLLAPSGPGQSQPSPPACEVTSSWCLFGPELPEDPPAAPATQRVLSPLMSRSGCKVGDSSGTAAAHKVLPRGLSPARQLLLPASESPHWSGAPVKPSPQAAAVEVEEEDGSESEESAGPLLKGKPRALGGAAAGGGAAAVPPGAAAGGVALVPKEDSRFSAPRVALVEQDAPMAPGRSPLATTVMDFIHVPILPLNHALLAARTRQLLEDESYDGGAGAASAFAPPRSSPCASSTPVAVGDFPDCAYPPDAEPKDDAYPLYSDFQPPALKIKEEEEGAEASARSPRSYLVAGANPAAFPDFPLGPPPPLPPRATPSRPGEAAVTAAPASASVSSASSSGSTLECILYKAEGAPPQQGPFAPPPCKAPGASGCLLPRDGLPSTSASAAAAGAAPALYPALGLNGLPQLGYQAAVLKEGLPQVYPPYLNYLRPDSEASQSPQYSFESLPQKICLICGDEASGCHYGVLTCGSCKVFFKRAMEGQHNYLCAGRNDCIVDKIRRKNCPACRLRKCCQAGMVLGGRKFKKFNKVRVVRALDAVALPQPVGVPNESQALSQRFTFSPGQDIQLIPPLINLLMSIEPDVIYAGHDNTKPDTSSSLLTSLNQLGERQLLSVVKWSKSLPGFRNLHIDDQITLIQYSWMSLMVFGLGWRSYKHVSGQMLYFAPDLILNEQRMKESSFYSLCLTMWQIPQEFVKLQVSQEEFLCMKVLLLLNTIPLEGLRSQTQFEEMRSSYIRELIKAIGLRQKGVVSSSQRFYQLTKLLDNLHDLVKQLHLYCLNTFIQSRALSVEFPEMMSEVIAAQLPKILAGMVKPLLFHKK", "assay": "Progesterone receptor protein expression/stability after siRNA knock down of BRCA1", "assay_type": "cell-based", "from_the_text": "(§1) Cell growth in comparison to untransfected and mock transfected cells was compared. In a second step cells were stimulated either with progesterone and/or with estrogens. […] The effects on progesterone receptor protein expression were further investigated."}, "progesterone receptor [2]": {"biological_target": "T1, progesterone receptor", "settings": "Fuhrmann et al., J. Med. Chem. 2000; cited from earlier work"}, "[3]": {"tested_on": "NMU-induced rat mammary carcinomas", "assay": "NMU-induced mammary tumor model in female rats, 4 weeks treatment", "assay_type": "in vivo, female Sprague-Dawley rats", "settings": "for Median tumor weight: 1 mg/kg p.o. daily for 4 weeks (combination 1 + 1 mg/kg), of 10 animals, control 15200, ovariectomy 0; for Tumor growth inhibition compared to control (procentual change of tumor area): 1 mg/kg p.o. each, 4 weeks, Kruskal-Wallis-test", "protocol": "Tumors were induced by a single intravenous injection of NMU (50 mg/kg) in female Sprague-Dawley rats (Tierzucht Schönwalde, age 50-55 days). Rats with at least one established tumor with a size of minimal 150 mm^2 were treated for 4 weeks by\n1) Solvent control, 2) Ovariectomy (at treatment start), 3) The progesterone receptor antagonist 11β-(4-acetylphenyl)-17β-hydroxy-17α(1,1,2,2,2-pentafluoroethyl)-estra-4,9-dien-3-one, 1 mg/kg p.o., 4) Tamoxifen, 1 mg/kg p.o., 5) The progesterone receptor antagonist 11β-(4-acetylphenyl)-17β-hydroxy-17α(1,1,2,2,2-pentafluoroethyl)-estra-4,9-dien-3-one, 1 mg/kg p.o. and Tamoxifen, 1 mg/kg p.o. daily.\nAs parameter for growth inhibition the procentual change of tumor area determined by weekly caliper measurements was used. For statistical analysis of intergroup differences of mean values the Kruskal-Wallis-test was used."}, "[4]": {"tested_on": "MCF-10 mammary cells with BRCA1 and BRCA2 knock down", "assay": "Growth of MCF-10 mammary cells with siRNA knock down of BRCA1 and BRCA2, stimulated with progesterone and/or estrogens", "assay_type": "cell-based", "settings": "co-treatment, in the presence of progesterone", "protocol": "MCF-10 mammary cells obtained from ATCC were treated with siRNA knocking down the BRCA1 and BRCA2 gene.\nas §1"}, "[5]": {"tested_on": "Brca1/p53-deficient mice mammary tumors", "settings": "BRCA1- or BRCA2 inactivated in mammary glands; Poole et al., Science 2006; cited from earlier work"}}}
{"smiles": "CC(=O)c1ccc([C@H]2C[C@@]3(C)[C@@H](CC[C@@]3(O)C(F)(F)C(F)(F)F)[C@@H]3CCC4=CC(=O)CCC4=C32)cc1", "note": "[11β-(4-acetylphenyl)-17β-hydroxy-17α-(1,1,2,2,2-pentafluoroethyl)-estra-4,9-dien-3-one]", "values": [{"measurement": "Increased stability of progesterone receptor after BRCA1 knock down", "setting": "progesterone receptor [1]", "value": "could be antagonized"}, {"measurement": "Antiprogestagenic activity", "setting": "progesterone receptor [2]", "value": "high antiprogestagenic activity"}, {"measurement": "Median tumor weight", "setting": "[3]", "value": 1800, "unit": "mg"}, {"measurement": "Tumor growth inhibition compared to control (procentual change of tumor area)", "setting": "[3]", "value": "not significant different to the untreated control group"}, {"measurement": "Growth/proliferation of BRCA1 knock down cells", "setting": "[4]", "value": "able to antagonize the effects of BRCA1 knock down"}]}
{"smiles": "CC/C(=C(\\c1ccccc1)c1ccc(OCCN(C)C)cc1)c1ccccc1", "note": "[Tamoxifen, reference compound]", "values": [{"measurement": "Median tumor weight", "setting": "[3]", "value": 2950, "unit": "mg"}, {"measurement": "Tumor growth inhibition compared to control (procentual change of tumor area)", "setting": "[3]", "value": "not significant different to the untreated control group"}]}
{"smiles": "CC#C[C@]1(O)CC[C@H]2[C@@H]3CCC4=CC(=O)CCC4=C3[C@@H](c3ccc(N(C)C)cc3)C[C@@]21C", "note": "[mifepristone]", "values": [{"measurement": "Development of mammary tumors in mice", "setting": "[5]", "value": "blocks the development of mammary tumors"}]}
